The supplement of paper PMC10307832

Key:
Assay in all cases: relative viability (nuclei count vs DMSO), 5 days (fraction); higher = more cells survive
NCI-H661 = system: NCI-H661
Outline: (§1)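 A single step with final 0.05% Triton X-100, 1% formaldehyde and 1 ug/ml Hoechst fixed the cells and stained nuclei 5 days after treatment. Lung cancer cell lines in 1536-well plates had been treated by pin tool the day after seeding with one drug alone or a fixed anchor-drug dose plus five library-drug doses (not always all listed) in √10 steps, and nuclei were counted on 4× images. Relative viability is the ratio of nuclei in treated wells to nuclei in vehicle wells, taken as the median of duplicate plates.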

PC-14 = system: PC-14
Outline: as §1

ChaGo-K-1 = system: ChaGo-K-1
Outline: as §1

RERF-LC-KJ = system: RERF-LC-KJ
Outline: as §1

NCI-H23 = system: NCI-H23
Outline: as §1

NCI-H2126 = system: NCI-H2126
Outline: as §1

LCLC-97TM1 = system: LCLC-97TM1
Outline: as §1

HCC-78 = system: HCC-78
Outline: as §1

NCI-H647 = system: NCI-H647
Outline: as §1

NCI-H2347 = system: NCI-H2347
Outline: as §1

NCI-H1666 = system: NCI-H1666
Outline: as §1

NCI-H2405 = system: NCI-H2405
Outline: as §1

EPLC-272H = system: EPLC-272H
Outline: as §1

HCC-827 = system: HCC-827
Outline: as §1

NCI-H1915 = system: NCI-H1915
Outline: as §1

NCI-H522 = system: NCI-H522
Outline: as §1

NCI-H520 = system: NCI-H520
Outline: as §1

NCI-H650 = system: NCI-H650
Outline: as §1

H3255 = system: H3255
Outline: as §1

201T = system: 201T
Outline: as §1

NCI-H322M = system: NCI-H322M
Outline: as §1

COR-L 105 = system: COR-L 105
Outline: as §1

LC-2-ad = system: LC-2-ad
Outline: as §1

NCI-H2087 = system: NCI-H2087
Outline: as §1

With C[C@@H]1CN(CC(=O)Nc2ccc3c(c2)Cc2cccc(-c4cc(=O)cc(N5CCOCC5)o4)c2S3)C[C@H](C)O1 + COc1cccc2cc(-c3nc([C@H]4CC[C@H](C(=O)O)CC4)n4ncnc(N)c34)[nH]c12 [OSI-027] (partner 0.5 µM) as the compound, how does the relative viability (NCI-H661; first compound 0.04 µM) read?
The relative viability was 0.694.

And the relative viability (NCI-H661; first compound 0.1265 µM)?
The relative viability was 0.701.

What about the relative viability (NCI-H661; first compound 0.4 µM) of the same compound?
The relative viability was 0.646.

And the relative viability (NCI-H661; first compound 4 µM)?
Its relative viability is 0.666.

And the relative viability (PC-14; first compound 0.04 µM)?
The relative viability was 1.02.

And the relative viability (PC-14; first compound 0.1265 µM)?
Its relative viability is 0.761.

And the relative viability (PC-14; first compound 0.4 µM)?
Its relative viability is 0.744.

And the relative viability (PC-14; first compound 4 µM)?
Its relative viability is 0.653.

What about the relative viability (ChaGo-K-1; first compound 0.04 µM) of the same compound?
The relative viability was 0.525.

And the relative viability (ChaGo-K-1; first compound 0.1265 µM)?
The relative viability was 0.593.

And the relative viability (ChaGo-K-1; first compound 0.4 µM)?
The relative viability was 0.531.

And the relative viability (ChaGo-K-1; first compound 4 µM)?
The relative viability was 0.533.

What about the relative viability (RERF-LC-KJ; first compound 0.04 µM) of the same compound?
The relative viability was 0.757.

What about the relative viability (RERF-LC-KJ; first compound 0.1265 µM) of the same compound?
The relative viability was 0.583.

What about the relative viability (RERF-LC-KJ; first compound 0.4 µM) of the same compound?
The relative viability was 0.534.

And the relative viability (RERF-LC-KJ; first compound 4 µM)?
The relative viability was 0.49.

What about the relative viability (NCI-H23; first compound 0.04 µM) of the same compound?
The relative viability was 0.732.

What about the relative viability (NCI-H23; first compound 0.1265 µM) of the same compound?
Its relative viability is 0.572.

What about the relative viability (NCI-H23; first compound 0.4 µM) of the same compound?
Its relative viability is 0.558.

And the relative viability (NCI-H23; first compound 4 µM)?
Its relative viability is 0.426.

What about the relative viability (NCI-H2126; first compound 0.04 µM) of the same compound?
The relative viability was 0.708.

What about the relative viability (NCI-H2126; first compound 0.1265 µM) of the same compound?
Its relative viability is 0.579.

What about the relative viability (NCI-H2126; first compound 0.4 µM) of the same compound?
The relative viability was 0.677.

And the relative viability (NCI-H2126; first compound 4 µM)?
Its relative viability is 0.647.

What about the relative viability (LCLC-97TM1; first compound 0.04 µM) of the same compound?
Its relative viability is 0.45.

And the relative viability (LCLC-97TM1; first compound 0.1265 µM)?
Its relative viability is 0.601.

And the relative viability (LCLC-97TM1; first compound 0.4 µM)?
The relative viability was 0.408.

What about the relative viability (LCLC-97TM1; first compound 4 µM) of the same compound?
The relative viability was 0.509.

And the relative viability (HCC-78; first compound 0.04 µM)?
Its relative viability is 0.372.

What about the relative viability (HCC-78; first compound 0.1265 µM) of the same compound?
Its relative viability is 0.358.

What about the relative viability (HCC-78; first compound 0.4 µM) of the same compound?
The relative viability was 0.365.

What about the relative viability (HCC-78; first compound 4 µM) of the same compound?
Its relative viability is 0.384.

And the relative viability (NCI-H647; first compound 0.04 µM)?
The relative viability was 0.519.

What about the relative viability (NCI-H647; first compound 0.1265 µM) of the same compound?
Its relative viability is 0.669.

And the relative viability (NCI-H647; first compound 0.4 µM)?
The relative viability was 0.497.

What about the relative viability (NCI-H647; first compound 4 µM) of the same compound?
Its relative viability is 0.558.

And the relative viability (NCI-H2347; first compound 0.04 µM)?
Its relative viability is 0.465.

And the relative viability (NCI-H2347; first compound 0.1265 µM)?
The relative viability was 0.417.

And the relative viability (NCI-H2347; first compound 0.4 µM)?
The relative viability was 0.415.

What about the relative viability (NCI-H2347; first compound 4 µM) of the same compound?
Its relative viability is 0.4.

What about the relative viability (NCI-H1666; first compound 0.04 µM) of the same compound?
Its relative viability is 0.932.

What about the relative viability (NCI-H1666; first compound 0.1265 µM) of the same compound?
The relative viability was 0.87.

And the relative viability (NCI-H1666; first compound 0.4 µM)?
The relative viability was 0.978.

And the relative viability (NCI-H1666; first compound 4 µM)?
Its relative viability is 0.838.

What about the relative viability (NCI-H2405; first compound 0.04 µM) of the same compound?
The relative viability was 0.632.

What about the relative viability (NCI-H2405; first compound 0.1265 µM) of the same compound?
Its relative viability is 0.699.

What about the relative viability (NCI-H2405; first compound 0.4 µM) of the same compound?
Its relative viability is 0.528.

What about the relative viability (NCI-H2405; first compound 4 µM) of the same compound?
The relative viability was 0.615.

What about the relative viability (EPLC-272H; first compound 0.04 µM) of the same compound?
Its relative viability is 0.279.

What about the relative viability (EPLC-272H; first compound 0.1265 µM) of the same compound?
The relative viability was 0.334.

And the relative viability (EPLC-272H; first compound 0.4 µM)?
The relative viability was 0.301.

And the relative viability (EPLC-272H; first compound 4 µM)?
The relative viability was 0.304.

And the relative viability (HCC-827; first compound 0.04 µM)?
The relative viability was 0.775.

What about the relative viability (HCC-827; first compound 0.1265 µM) of the same compound?
The relative viability was 0.738.

And the relative viability (HCC-827; first compound 0.4 µM)?
The relative viability was 0.509.

And the relative viability (HCC-827; first compound 4 µM)?
Its relative viability is 0.746.

And the relative viability (NCI-H1915; first compound 0.04 µM)?
The relative viability was 0.623.

And the relative viability (NCI-H1915; first compound 0.1265 µM)?
Its relative viability is 0.682.

What about the relative viability (NCI-H1915; first compound 0.4 µM) of the same compound?
The relative viability was 0.632.

What about the relative viability (NCI-H1915; first compound 4 µM) of the same compound?
Its relative viability is 0.497.

What about the relative viability (NCI-H522; first compound 0.04 µM) of the same compound?
The relative viability was 0.706.

And the relative viability (NCI-H522; first compound 0.1265 µM)?
The relative viability was 0.679.

What about the relative viability (NCI-H522; first compound 0.4 µM) of the same compound?
Its relative viability is 0.742.

What about the relative viability (NCI-H522; first compound 4 µM) of the same compound?
The relative viability was 0.735.

And the relative viability (NCI-H520; first compound 0.04 µM)?
Its relative viability is 0.272.

What about the relative viability (NCI-H520; first compound 0.1265 µM) of the same compound?
Its relative viability is 0.227.

What about the relative viability (NCI-H520; first compound 0.4 µM) of the same compound?
The relative viability was 0.221.

What about the relative viability (NCI-H520; first compound 4 µM) of the same compound?
The relative viability was 0.264.

And the relative viability (NCI-H650; first compound 0.04 µM)?
The relative viability was 0.491.

And the relative viability (NCI-H650; first compound 0.1265 µM)?
The relative viability was 0.443.

And the relative viability (NCI-H650; first compound 0.4 µM)?
Its relative viability is 0.51.

And the relative viability (NCI-H650; first compound 4 µM)?
The relative viability was 0.36.

What about the relative viability (H3255; first compound 0.04 µM) of the same compound?
Its relative viability is 0.599.

What about the relative viability (H3255; first compound 0.1265 µM) of the same compound?
The relative viability was 0.624.

What about the relative viability (H3255; first compound 0.4 µM) of the same compound?
Its relative viability is 0.48.

What about the relative viability (H3255; first compound 4 µM) of the same compound?
The relative viability was 0.491.

What about the relative viability (201T; first compound 0.04 µM) of the same compound?
Its relative viability is 0.784.

What about the relative viability (201T; first compound 0.1265 µM) of the same compound?
Its relative viability is 0.68.

And the relative viability (201T; first compound 0.4 µM)?
Its relative viability is 0.683.

And the relative viability (201T; first compound 4 µM)?
The relative viability was 0.757.

And the relative viability (NCI-H322M; first compound 0.04 µM)?
The relative viability was 0.485.

And the relative viability (NCI-H322M; first compound 0.1265 µM)?
The relative viability was 0.643.

And the relative viability (NCI-H322M; first compound 0.4 µM)?
The relative viability was 0.5.

And the relative viability (NCI-H322M; first compound 4 µM)?
The relative viability was 0.493.

What about the relative viability (COR-L 105; first compound 0.04 µM) of the same compound?
Its relative viability is 0.728.

And the relative viability (COR-L 105; first compound 0.1265 µM)?
The relative viability was 0.828.

And the relative viability (COR-L 105; first compound 0.4 µM)?
Its relative viability is 0.823.

What about the relative viability (COR-L 105; first compound 4 µM) of the same compound?
The relative viability was 0.661.

What about the relative viability (LC-2-ad; first compound 0.04 µM) of the same compound?
Its relative viability is 0.984.

And the relative viability (LC-2-ad; first compound 0.1265 µM)?
Its relative viability is 0.923.

And the relative viability (LC-2-ad; first compound 0.4 µM)?
Its relative viability is 0.649.

What about the relative viability (LC-2-ad; first compound 4 µM) of the same compound?
The relative viability was 0.656.

And the relative viability (NCI-H2087; first compound 0.04 µM)?
Its relative viability is 0.847.

And the relative viability (NCI-H2087; first compound 0.1265 µM)?
The relative viability was 0.521.

And the relative viability (NCI-H2087; first compound 0.4 µM)?
The relative viability was 0.463.

What about the relative viability (NCI-H2087; first compound 4 µM) of the same compound?
The relative viability was 0.457.
